According to publication PMC5028038, “Demethoxycurcumin Is A Potent Inhibitor of P-Type ATPases from Diverse Kingdoms of Life” (PLoS ONE, 2016):
≈ marks a conversion by molar mass, not a printed value. Like-named read-outs stand apart in the source and are kept apart here.

Tests used:
[1] = target: T1, yeast plasma membrane H+-ATPase Pma1p (Saccharomyces cerevisiae, UniProt P05030); assay: ATP hydrolysis (Baginski) assay on Pma1p in yeast plasma membranes; type: biochemical, S. cerevisiae; conditions: for effect on Pma1p ATPase activity: 50 μM compound; for slope factor H of inhibition curve, Pma1p: variable slope fit
T1 construct: made in house; host or cells: S. cerevisiae strain RS-72 (chromosomal PMA1 under GAL1 promoter, repressed on glucose), plasma membranes isolated
T1 sequence (P05030 whole entry): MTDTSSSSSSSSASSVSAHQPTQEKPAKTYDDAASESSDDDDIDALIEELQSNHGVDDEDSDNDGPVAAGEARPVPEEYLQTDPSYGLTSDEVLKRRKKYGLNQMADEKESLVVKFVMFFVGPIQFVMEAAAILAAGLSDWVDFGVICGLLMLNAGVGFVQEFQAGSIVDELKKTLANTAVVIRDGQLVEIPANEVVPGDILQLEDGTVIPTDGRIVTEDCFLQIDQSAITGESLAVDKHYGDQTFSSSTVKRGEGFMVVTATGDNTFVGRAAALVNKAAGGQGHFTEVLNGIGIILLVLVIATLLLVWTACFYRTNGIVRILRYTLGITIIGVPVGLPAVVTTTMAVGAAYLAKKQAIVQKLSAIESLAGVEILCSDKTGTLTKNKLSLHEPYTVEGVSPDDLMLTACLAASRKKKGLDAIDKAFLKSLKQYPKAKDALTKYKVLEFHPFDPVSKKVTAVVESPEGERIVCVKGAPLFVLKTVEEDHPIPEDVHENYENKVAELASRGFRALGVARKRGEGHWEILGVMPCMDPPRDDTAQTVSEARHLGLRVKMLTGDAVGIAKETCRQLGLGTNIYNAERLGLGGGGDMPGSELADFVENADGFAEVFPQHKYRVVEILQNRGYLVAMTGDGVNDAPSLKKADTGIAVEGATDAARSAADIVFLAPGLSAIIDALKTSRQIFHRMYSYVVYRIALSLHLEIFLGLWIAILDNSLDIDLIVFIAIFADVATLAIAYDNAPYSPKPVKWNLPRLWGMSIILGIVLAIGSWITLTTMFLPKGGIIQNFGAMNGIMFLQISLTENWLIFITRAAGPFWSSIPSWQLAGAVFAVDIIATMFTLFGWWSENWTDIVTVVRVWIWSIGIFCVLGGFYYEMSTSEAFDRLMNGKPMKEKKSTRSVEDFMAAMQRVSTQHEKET
Source text: (§1) The S. cerevisiae strain RS-72 (MATa ade1-100 his4-519 leu2-3, 112) was transformed according to the lithium acetate/single-stranded carrier DNA/polyethylene glycol method, and cultured essentially as described previously. In RS-72, the promoter of the endogenous yeast PM H^+-ATPase PMA1 gene was replaced by the galactose-dependent GAL1 promoter. This strain grew in media containing galactose, whereas growth in glucose-based medium requires the complementation of the yeast PM H^+-ATPase with a functional PM H^+-ATPase expressed from a plasmid. A 2-micron yeast expression vector was used for expression of different versions of the Arabidopsis thaliana PM H^+-ATPase AHA2 (pMP 1625); a 92-amino acid C-terminal truncated mutation, aha2∆92 (pMP 132); or the wild-type S. cerevisiae PM H^+-ATPase PMA1 (pMP 400) placed under the control of the PMA1 promoter. The use of RS-72 allows for purification of microsomes with a very low endogenous ATPase activity compared to RS-72 transformed with an H^+-ATPase carrying plasmid.
(§2) Yeast expressing AHA2 and Pma1p PM H^+-ATPase, respectively, were grown and harvested essentially as described. The cells were grown with glucose as carbon source in order to ensure than no endogenous plasma membrane H^+-ATPase is expressed. Microsomes and plasma membranes were isolated with all manipulations performed at 4°C. The final pellets containing the isolated membranes were collected and homogenized in GTED20 buffer (20% [v/v] glycerol, 10 mM Tris-HCl pH 7.5, 1 mM EDTA pH 8.0, 1 mM DTT) and stored at—80°C.
(§3) ATPase activity was determined by the Baginski assay as described previously using 2–5 μg of PM protein. The assays were performed at 30°C in 300 μL volumes with 3 mM ATP, pH 6.5, for determination of AHA2 activity, or with 5 mM ATP, pH 5.9 for Pma1p activity. The assay medium 20 mM MOPS, 50 mM KNO3 (to inhibit vacuolar ATPase), 5 mM NaN3 (to inhibit mitochondrial ATPase), 3.5 mM Na2MoO4 (to inhibit acid phosphatase), 1 mM Mg^2+ free in solution, and the indicated concentrations of MgATP. IC50 values for compound inhibition were determined by pre incubating PM with different concentrations of compound for 30 min at room temperature. For kinetics studies, the concentration of ATP was varied between 0.125 and 8 mM using an ATP regenerating system (5 mM phosphoenolpyruvate and 50 μg/mL pyruvate kinase).
(§4) The kinetic of inhibition for DMCM was determined by monitoring the rate of ATP hydrolysis reaction in the presence of increasing ATP substrate concentration. All kinetic data were gathered from experiments performed in the cuvette-based assay, as described above. The data were used in Hanes-Woolf analysis followed by fitting to the appropriate Michaelis-Menten inhibition equation (competitive, noncompetitive, uncompetitive, or mix type inhibition). The kinetic parameters Vmax, Km, Ki were estimated by nonlinear regression using GraphPad Prism 5.0 (GraphPad Software Inc.). For evaluation of inhibitor potency, IC50 values were calculated by using the equation: A=100/1+10^(LogIC50−LogC)×H where A is the observed % ATPase activity in the presence of compound; C, the compound concentration; IC50, the concentration that caused 50% inhibition of the maximal compound effect; and H, the slope factor.

[2] = tested on: S. cerevisiae strain RS-72; assay: Drop test, yeast growth, all tested RS-72 strains; type: cell-based; conditions: Saccharomyces cerevisiae, RS72, 72 h, read-out: Minimum inhibitory concentration (MIC), yeast growth
Source text: as §1
(§5) Transformed yeast cells, cultured on synthetic galactose (SG) agar medium supplemented with adenine 40 μg/mL and L-histidine 20 μg/mL (SGAH plates) for 3 days at 30°C, were suspended in H2O to 1x solution (OD660 = 1). Serial dilutions of 0.1, 0.01, 0.001 x of the cells were then prepared and spotted adjacently onto synthetic minimal media plates containing either 2% galactose or 2% glucose at pH 5.5 (SGAH or SDAH), incorporated with different concentrations of tested compound. Growth results were recorded after incubation for 3 days at 30°C. Minimum inhibitory concentrations (MIC values) were determined as the lowest concentrations of compounds where no visible growth of cells was observed.

[3] = tested on: S. cerevisiae RS-72 expressing Pma1p; assay: Drop test, yeast RS-72 expressing Pma1p; type: cell-based; conditions: Saccharomyces cerevisiae, 72 h; no visible growth after 3 days at 30°C
Source text: as §1, §5

[4] = tested on: S. cerevisiae RS-72 expressing AHA2; assay: Drop test, yeast RS-72 expressing AHA2; type: cell-based; conditions: Saccharomyces cerevisiae, 72 h; no visible growth after 3 days at 30°C
Source text: as §1, §5

[5] = target: T2, A. thaliana PM H+-ATPase isoform AHA2 (Arabidopsis thaliana, UniProt P19456); assay: ATP hydrolysis (Baginski) assay on AHA2 in yeast plasma membranes; type: biochemical; conditions: for effect on AHA2 ATPase activity: 50 μM compound; for slope factor H of inhibition curve, AHA2: variable slope fit
T2 construct: made in house; host or cells: S. cerevisiae strain RS-72, plasma membranes isolated
T2 sequence (P19456 1-948): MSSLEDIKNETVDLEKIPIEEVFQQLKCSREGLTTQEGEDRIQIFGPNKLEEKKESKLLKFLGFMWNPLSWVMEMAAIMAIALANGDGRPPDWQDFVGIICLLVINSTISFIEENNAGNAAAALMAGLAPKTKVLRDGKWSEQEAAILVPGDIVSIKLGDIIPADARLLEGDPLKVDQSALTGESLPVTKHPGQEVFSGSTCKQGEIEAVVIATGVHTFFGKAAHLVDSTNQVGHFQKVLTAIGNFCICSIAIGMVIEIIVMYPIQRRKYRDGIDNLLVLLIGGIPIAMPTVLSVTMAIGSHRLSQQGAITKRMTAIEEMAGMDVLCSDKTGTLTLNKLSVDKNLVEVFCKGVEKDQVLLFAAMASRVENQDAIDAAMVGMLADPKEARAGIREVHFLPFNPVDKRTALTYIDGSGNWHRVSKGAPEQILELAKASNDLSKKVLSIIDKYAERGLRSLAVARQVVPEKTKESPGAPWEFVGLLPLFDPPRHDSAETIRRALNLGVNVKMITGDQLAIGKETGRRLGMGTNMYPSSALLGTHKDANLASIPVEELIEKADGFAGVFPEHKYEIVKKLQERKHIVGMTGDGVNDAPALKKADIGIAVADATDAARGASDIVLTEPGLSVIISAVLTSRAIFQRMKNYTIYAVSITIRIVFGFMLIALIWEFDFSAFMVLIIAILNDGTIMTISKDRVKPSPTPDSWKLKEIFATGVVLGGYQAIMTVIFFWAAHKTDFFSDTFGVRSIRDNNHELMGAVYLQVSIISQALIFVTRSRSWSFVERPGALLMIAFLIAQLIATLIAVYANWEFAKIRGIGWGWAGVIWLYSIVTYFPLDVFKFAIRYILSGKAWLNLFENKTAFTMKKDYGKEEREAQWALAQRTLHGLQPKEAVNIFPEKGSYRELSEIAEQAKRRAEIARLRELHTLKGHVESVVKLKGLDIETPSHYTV
Source text: as §1, §2, §3, §4

SERCA1a (Ca2+-ATPase) = SERCA1a (Ca2+-ATPase) (Oryctolagus cuniculus, UniProt P04191); assay: SERCA ATP hydrolysis, NADH-coupled spectrophotometric assay; type: biochemical, rabbit; conditions: purified leaky SERCA preparation
Chain of SERCA1a (Ca2+-ATPase) (P04191 1-994 isoform P04191-2): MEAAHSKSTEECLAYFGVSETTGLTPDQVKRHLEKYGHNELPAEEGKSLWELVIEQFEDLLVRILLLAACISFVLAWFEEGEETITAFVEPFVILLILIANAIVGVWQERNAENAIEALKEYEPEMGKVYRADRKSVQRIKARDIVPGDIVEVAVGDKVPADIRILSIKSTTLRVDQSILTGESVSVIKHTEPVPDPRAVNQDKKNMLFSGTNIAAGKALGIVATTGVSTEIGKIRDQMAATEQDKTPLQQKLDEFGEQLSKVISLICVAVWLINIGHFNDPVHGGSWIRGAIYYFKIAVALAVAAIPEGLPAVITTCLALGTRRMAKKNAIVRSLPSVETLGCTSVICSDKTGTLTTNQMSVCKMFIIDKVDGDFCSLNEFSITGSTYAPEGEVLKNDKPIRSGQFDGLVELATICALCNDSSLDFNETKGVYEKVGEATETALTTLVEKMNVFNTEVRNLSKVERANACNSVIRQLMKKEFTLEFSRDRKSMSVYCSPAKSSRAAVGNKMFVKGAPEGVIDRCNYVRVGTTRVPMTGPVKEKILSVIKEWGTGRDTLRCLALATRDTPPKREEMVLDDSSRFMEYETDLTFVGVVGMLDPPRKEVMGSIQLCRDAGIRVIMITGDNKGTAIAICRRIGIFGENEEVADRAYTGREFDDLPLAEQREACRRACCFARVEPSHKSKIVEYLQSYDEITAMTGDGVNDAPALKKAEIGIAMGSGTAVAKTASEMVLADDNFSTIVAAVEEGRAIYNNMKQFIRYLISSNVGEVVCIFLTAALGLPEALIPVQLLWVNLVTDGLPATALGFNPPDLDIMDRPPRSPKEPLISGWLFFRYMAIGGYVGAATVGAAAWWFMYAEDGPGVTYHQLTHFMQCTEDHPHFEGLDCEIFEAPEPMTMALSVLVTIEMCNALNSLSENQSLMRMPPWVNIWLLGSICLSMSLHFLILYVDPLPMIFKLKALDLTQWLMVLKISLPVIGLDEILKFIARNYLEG
Source text: Sarcoplasmic reticulum vesicles, prepared from the leg and back muscles of rabbits, were used to obtain purified SERCA1a by extraction with a low concentration of deoxycholate according to established methods. The resulting membrane fragments were used for enzymatic assays to test the effect of the curcuminoid compounds on ATP hydrolysis spectrophotometrically by NADH oxidation with an ATP regenerating system.

[6] = design: method as in PMID 17999464; conditions: due to fast metabolism; cited from earlier work
[7] = tested on: PM H+-ATPase in spinach plasma membrane vesicles; assay: Proton pumping assay (ACMA fluorescence quenching) in spinach plasma membrane vesicles; type: biochemical, Spinacia oleracea; conditions: 5–20 μM
Protocol: Baby spinach (Spinacia oleracea) leaves (50 g) were cut into small pieces and homogenized. Subsequently plasma membranes were isolated by two-phase partitioning according to [58]. Plasma membranes were collected and homogenized in the phase buffer containing 330 mM sucrose, 5 mM potassium phosphate pH 7.8, 2 mM KCl, 0.1 mM EDTA, and 1 mM DTT and stored at—80°C.
Inside-out vesicles were created from spinach plasma membranes by adding the detergent Brij-58 to the buffer. Proton transport into the vesicles was determined as described by monitoring fluorescence quenching (excitation at 412 nm, emission at 480 nm) of 9-amino-6-chloro-2-methoxyacridine (ACMA). The reaction medium contained 20 mM MOPS-KOH, pH 7.0, 40 mM K2SO4, 25 mM KNO3, 2 mM ATP, 1 μM ACMA, 60 nM valinomycin and 0.05% (w/v) Brij-58. Proton pumping reactions were started by the addition of MgSO4 to a final concentration of 2 mM, and the proton gradient was collapsed by the addition of 10 μM nigericin.

[8] = design: method as in doi:10.1016/S0260-8774(02)00264-9; conditions: cited from earlier work
[9] = 3 mM ATP, pH 6.5, 30°C, 30 min preincubation, read-out: IC50, ATP hydrolysis, AHA2

| SMILES | effect on Pma1p ATPase activity [1] | slope factor H of inhibition curve, Pma1p [1] | MIC [3] | MIC [4] | effect on AHA2 ATPase activity [5] | slope factor H of inhibition curve, AHA2 [5] | IC50 [1] | IC50 (SERCA1a (Ca2+-ATPase)) | MIC [2] | IC50 [5, 9] | further results |
| --- | --- | --- | --- | --- | --- | --- | --- | --- | --- | --- | --- |
| O=C(/C=C(O)/C=C/c1ccc(O)cc1)/C=C/c1ccc(O)cc1 [BDCM (3), bisdemethoxycurcumin] | significantly inhibited | ~1 | 210 to 220 µM (≈ 64.7 to 67.8 µg/mL) | 200 to 210 µM (≈ 61.7 to 64.7 µg/mL) | significantly inhibited | ~1 | – | – | – | – | IC50 ([1]; 5 mM ATP, pH 5.9, 30°C, 30 min preincubation, read-out: IC50, ATP hydrolysis, Pma1p): 90.6 ± 1.1 µM; MIC ([2]; approximate values, 3 days at 30°C): ~200 µM (≈ 61.7 µg/mL); IC50 [5]: 76.7 ± 1.1 µM |
| COc1cc(/C=C/C(=O)/C=C(O)/C=C/c2ccc(O)c(OC)c2)ccc1O [CM (1), Curcumin] | significantly inhibited | ~1 | 60 to 70 µM (≈ 22.1 to 25.8 µg/mL) | 40 to 50 µM (≈ 14.7 to 18.4 µg/mL) | significantly inhibited | ~1 | 76.1 ± 1 µM | 3.9 ± 0.4 µM | ~50 µM (≈ 18.4 µg/mL) | 60.4 ± 1.1 µM | bioavailability [6]: poor bioavailability |
| COc1cc(/C=C/C(=O)/C=C(O)/C=C/c2ccc(O)cc2)ccc1O [DMCM (2), demethoxycurcumin] | significantly inhibited | 1.5 | 40 to 50 µM (≈ 13.5 to 16.9 µg/mL) | 20 to 30 µM (≈ 6.77 to 10.2 µg/mL) | significantly inhibited | 2.4 | 28.9 ± 1 µM | 2.6 ± 0.9 µM | ~30 µM (≈ 10.2 µg/mL) | 18.7 ± 1 µM | Ki [1]: 27.7 ± 1.2 µM; Pma1p Vmax ([1]; 10 μM demethoxycurcumin): 1.00 ± 0.13 µM/mg/min; Pma1p Vmax ([1]; 20 μM demethoxycurcumin): 0.63 ± 0.05 µM/mg/min; Pma1p Vmax ([1]; 30 μM demethoxycurcumin): 0.48 ± 0.04 µM/mg/min; Pma1p Vmax ([1]; 40 μM demethoxycurcumin): 0.39 ± 0.04 µM/mg/min; mode of inhibition versus ATP, Pma1p ([1]; DMCM 0-40 μM, ATP 0.125–8 mM): noncompetitive inhibitor; effect on H+ pumping activity [7]: dramatically reversed; AHA2 Vmax ([5]; 10 μM demethoxycurcumin): 0.46 ± 0.02 µM/mg/min; AHA2 Vmax ([5]; 20 μM demethoxycurcumin): 0.35 ± 0.01 µM/mg/min; AHA2 Vmax ([5]; 30 μM demethoxycurcumin): 0.19 ± 0.01 µM/mg/min; AHA2 Vmax ([5]; 40 μM demethoxycurcumin): 0.11 ± 0.01 µM/mg/min; fold lower IC50 value in comparison to CM or BDCM ([5]; AHA2 and Pma1p ATP hydrolysis): 2- to 4 fold; mode of inhibition versus ATP, AHA2 ([5]; DMCM 0-40 μM, ATP 0.125–8 mM): noncompetitive inhibitor; Ki ([5]; in vitro, noncompetitive model, ATP 0.125-8 mM): 14.7 ± 0.7 µM; chemical stability compared with CM [8]: more stable |
